In BindingDB's records for patent WO2022081807 (THE BROAD INSTITUTE, INC., 2022):

What follows are compounds tested against T1, Histone acetyltransferase KAT6A [507-778] (Human, UniProt Q92794) (assay: Kat6a Activity Assay).
T1 construct: 507-778
T1 sequence (Q92794 whole entry): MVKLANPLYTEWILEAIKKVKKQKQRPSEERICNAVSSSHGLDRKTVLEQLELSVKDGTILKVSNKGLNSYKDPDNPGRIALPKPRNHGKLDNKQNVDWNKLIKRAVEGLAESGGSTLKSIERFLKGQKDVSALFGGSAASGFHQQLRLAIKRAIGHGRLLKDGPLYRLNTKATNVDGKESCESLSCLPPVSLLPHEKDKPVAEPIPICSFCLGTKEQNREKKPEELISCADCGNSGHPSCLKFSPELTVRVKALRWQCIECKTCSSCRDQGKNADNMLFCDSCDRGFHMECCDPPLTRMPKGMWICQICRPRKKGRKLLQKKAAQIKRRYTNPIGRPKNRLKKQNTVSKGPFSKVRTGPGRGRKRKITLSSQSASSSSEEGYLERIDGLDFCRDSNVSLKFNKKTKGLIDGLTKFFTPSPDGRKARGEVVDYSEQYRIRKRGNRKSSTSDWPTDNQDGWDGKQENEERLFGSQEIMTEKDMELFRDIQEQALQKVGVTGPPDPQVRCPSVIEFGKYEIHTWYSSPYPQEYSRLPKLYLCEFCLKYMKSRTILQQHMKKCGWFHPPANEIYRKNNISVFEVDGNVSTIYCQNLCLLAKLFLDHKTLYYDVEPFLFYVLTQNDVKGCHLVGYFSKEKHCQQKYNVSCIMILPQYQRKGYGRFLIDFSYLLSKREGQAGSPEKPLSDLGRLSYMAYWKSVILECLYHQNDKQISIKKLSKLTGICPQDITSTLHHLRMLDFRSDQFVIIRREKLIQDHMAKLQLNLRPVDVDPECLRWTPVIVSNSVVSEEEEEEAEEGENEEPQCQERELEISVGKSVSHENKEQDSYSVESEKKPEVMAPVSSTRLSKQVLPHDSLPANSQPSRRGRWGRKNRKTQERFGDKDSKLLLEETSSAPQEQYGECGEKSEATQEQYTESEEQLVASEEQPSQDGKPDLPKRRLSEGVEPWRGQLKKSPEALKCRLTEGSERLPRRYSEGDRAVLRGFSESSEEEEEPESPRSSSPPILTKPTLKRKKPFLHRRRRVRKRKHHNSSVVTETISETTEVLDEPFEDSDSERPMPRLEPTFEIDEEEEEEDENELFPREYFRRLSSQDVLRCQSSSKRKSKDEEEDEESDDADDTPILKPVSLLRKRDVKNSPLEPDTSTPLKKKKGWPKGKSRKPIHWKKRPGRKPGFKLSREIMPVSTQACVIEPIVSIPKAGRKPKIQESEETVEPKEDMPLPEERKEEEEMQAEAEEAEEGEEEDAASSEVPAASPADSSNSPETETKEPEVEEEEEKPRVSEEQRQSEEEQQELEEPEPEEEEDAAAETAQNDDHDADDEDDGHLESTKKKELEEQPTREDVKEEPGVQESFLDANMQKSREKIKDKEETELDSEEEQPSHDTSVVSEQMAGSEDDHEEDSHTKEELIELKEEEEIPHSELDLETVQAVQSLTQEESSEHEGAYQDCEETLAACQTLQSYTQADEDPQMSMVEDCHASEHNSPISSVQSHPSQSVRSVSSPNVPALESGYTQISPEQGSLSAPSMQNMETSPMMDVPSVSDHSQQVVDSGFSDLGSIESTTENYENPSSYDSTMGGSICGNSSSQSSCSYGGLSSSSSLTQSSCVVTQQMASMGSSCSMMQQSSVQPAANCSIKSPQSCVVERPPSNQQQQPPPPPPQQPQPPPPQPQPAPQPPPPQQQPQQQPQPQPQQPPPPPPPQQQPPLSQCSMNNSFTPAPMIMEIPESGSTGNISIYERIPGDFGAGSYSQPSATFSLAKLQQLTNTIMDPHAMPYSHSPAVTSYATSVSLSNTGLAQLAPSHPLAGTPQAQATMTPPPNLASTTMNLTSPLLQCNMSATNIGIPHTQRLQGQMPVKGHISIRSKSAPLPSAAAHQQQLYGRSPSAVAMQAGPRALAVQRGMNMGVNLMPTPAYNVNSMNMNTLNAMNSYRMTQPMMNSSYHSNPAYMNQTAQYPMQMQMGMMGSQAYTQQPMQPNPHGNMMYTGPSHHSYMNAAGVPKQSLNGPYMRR

SMILES	IC50 [nM]
O=C(NS(=O)(=O)c1c(NCC(F)F)cccc1C(F)(F)F)c1cc2c(F)cc(N3CCC3)cc2o1 [WO2022081807, Example 92]	464
CCOc1cccc(Oc2ccccc2)c1S(=O)(=O)NC(=O)c1cc2c(F)cc(N3CCC3)cc2o1 [WO2022081807, Example 7]	4.15
Cc1ccc(S(=O)(=O)NC(=O)c2cc3c(F)cc(N4CCC4)cc3o2)c2ccncc12 [WO2022081807, Example 191]	310
CCOc1ccc(CC)cc1S(=O)(=O)NC(=O)c1cc2c(F)cc(N3CC(F)C3)cc2o1 [WO2022081807, Example 153]	11
O=C(NS(=O)(=O)c1cccc2c1OCC2)c1cc2c(F)cc(N3CCC3)cc2o1 [WO2022081807, Example 18]	24
CCOc1ccc(Br)cc1S(=O)(=O)NC(=O)c1cc2c(F)cc(N3CCC3)cc2o1 [WO2022081807, Example 135]	17
COc1ccc(C2=CCN(C(=O)OC(C)(C)C)CC2)cc1S(=O)(=O)NC(=O)c1cc2c(F)cc(N3CCC3)cc2o1 [WO2022081807, Example 197]	6.06
CCOc1ccc(C(F)(F)F)cc1S(=O)(=O)NC(=O)c1cc2c(F)cc(N3CCC3)cc2o1 [WO2022081807, Example 209]	27
CC(Oc1ccccc1S(=O)(=O)NC(=O)c1cc2c(F)cc(N3CCC3)cc2o1)C(F)(F)F (racemic) [WO2022081807, Example 13]	19
Cc1ccc2cccc(S(=O)(=O)NC(=O)c3cc4c(F)cc(N5CCC5C)cc4o3)c2n1 (stereo not drawn) [WO2022081807, Example 221]	62
Cc1cccc(C(C)C)c1S(=O)(=O)NC(=O)c1cc2c(F)cc(N3CCC3)cc2o1 [WO2022081807, Example 53]	70
CN(C(=O)Oc1ccccc1S(=O)(=O)NC(=O)c1cc2c(F)cc(N3CCC3)cc2o1)c1ccccc1 [WO2022081807, Example 62]	196
CCOc1ccccc1S(=O)(=O)NC(=O)c1cc2c(F)cc(N3CC(C)(F)C3)cc2o1 [WO2022081807, Example 116]	2290
CCS(=O)(=O)c1nc2ccccn2c1S(=O)(=O)NC(=O)c1cc2c(F)cc(N3CC(F)C3)cc2o1 [WO2022081807, Example 167]	517
COc1ccc(C)cc1S(=O)(=O)NC(=O)c1cc2c(F)cc(N3CC(F)C3)cc2o1 [WO2022081807, Example 158]	26
O=C(NS(=O)(=O)c1ccccc1OC1CC1)c1cc2c(F)cc(N3CCC3)cc2o1 [WO2022081807, Example 131]	23
CCOc1cccc(C(C)C)c1S(=O)(=O)NC(=O)c1cc2c(F)cc(N3CCC3)cc2o1 [WO2022081807, Example 23]	29
CC(C)Oc1cccc(Br)c1S(=O)(=O)NC(=O)c1cc2c(F)cc(N3CCC3)cc2o1 [WO2022081807, Example 39]	79
C[C@H](Oc1ccccc1S(=O)(=O)NC(=O)c1cc2c(F)cc(N3CCC3)cc2o1)C(F)(F)F [WO2022081807, Example 15]	47

SMILES	IC50 [nM]
CC(C)c1ccc(C(C)C)c(S(=O)(=O)NC(=O)c2cc3c(F)cc(N4CCC4)cc3o2)c1 [WO2022081807, Example 30]	25
Cc1ccc(OCC2CCCC2)c(S(=O)(=O)NC(=O)c2cc3c(F)cc(N4CCC4)cc3o2)c1 [WO2022081807, Example 9]	21
Cc1ccc2cccc(S(=O)(=O)NC(=O)c3cc4c(F)cc(N5CCC5)cc4o3)c2n1 [WO2022081807, Example 130]	14
COc1ccc(C)cc1S(=O)(=O)NC(=O)c1cc2c(F)cc(N3CCC3)cc2o1 [WO2022081807, Example 156]	20
Cc1ccc(OC(C)C)c(S(=O)(=O)NC(=O)c2cc3c(F)cc(N4CCC4)cc3o2)c1 [WO2022081807, Example 134]	18
COc1cccc(N2CCOCC2)c1S(=O)(=O)NC(=O)c1cc2c(F)cc(N3CCC3)cc2o1 [WO2022081807, Example 137]	26
O=C(NS(=O)(=O)c1cccc2ccc(Cl)nc12)c1cc2c(F)cc(N3CC(F)C3)cc2o1 [WO2022081807, Example 154]	13
O=C(NS(=O)(=O)c1cc(Br)cc2c1OCC2)c1cc2c(F)cc(N3CCC3)cc2o1 [WO2022081807, Example 177]	21
CC1(C)CCN1c1cc(F)c2cc(C(=O)NS(=O)(=O)c3ccccc3-c3ccccc3)oc2c1 [WO2022081807, Example 217]	1190
O=C(NS(=O)(=O)c1cc(Br)ccc1OC(F)(F)F)c1cc2c(F)cc(N3CCC3)cc2o1 [WO2022081807, Example 82]	19
COc1ccc(N2CCCC2c2ccccc2)cc1S(=O)(=O)NC(=O)c1cc2c(F)cc(N3CCC3)cc2o1 (stereo not drawn) [WO2022081807, Example 201]	0.81
COc1ccc(-c2cccc(F)c2)cc1S(=O)(=O)NC(=O)c1cc2c(F)cc(N3CCC3)cc2o1 [WO2022081807, Example 198]	12
COc1ccc(C(C)C)cc1S(=O)(=O)NC(=O)c1cc2c(F)cc(N3CCC3)cc2o1 [WO2022081807, Example 128]	8.15
CN(C)c1ccccc1S(=O)(=O)NC(=O)c1cc2c(F)cc(N3CCC3)cc2o1 [WO2022081807, Example 11]	7.52
COc1ccc(Br)cc1S(=O)(=O)NC(=O)c1cc2c(F)cc(N3CCC3)cc2o1 [WO2022081807, Example 139]	27
C[C@@H](Oc1ccccc1S(=O)(=O)NC(=O)c1cc2c(F)cc(N3CCC3)cc2o1)C(F)(F)F [WO2022081807, Example 14]	28
CCc1cc(S(=O)(=O)NC(=O)c2cc3c(F)cc(N4CCC4)cc3o2)c(C)s1 [WO2022081807, Example 36]	367
CCOc1ccccc1S(=O)(=O)NC(=O)c1cc2c(F)cc(N3CC[C@@H]3C(N)=O)cc2o1 [WO2022081807, Example 169]	11
O=C(NS(=O)(=O)c1cccc2c1OC(F)(F)C(F)(F)O2)c1cc2c(F)cc(N3CCC3)cc2o1 [WO2022081807, Example 140]	28

These compounds were tested against Histone acetyltransferase KAT6B (Human, UniProt Q8WYB5) (assay: Kat6b Activity Assay).
Method: In this case 50 nl DMSO were used instead of compounds. […] IC50 values were determined by regression analysis based on a 4 parameter equation (minimum, maximum, ICM, Hill; Y = Max + (Min - Max) / (1 + (X/ICso) Hill) using the Screener Software (Genedata).

Histone acetyltransferase KAT6B, sequence (Q8WYB5 whole entry): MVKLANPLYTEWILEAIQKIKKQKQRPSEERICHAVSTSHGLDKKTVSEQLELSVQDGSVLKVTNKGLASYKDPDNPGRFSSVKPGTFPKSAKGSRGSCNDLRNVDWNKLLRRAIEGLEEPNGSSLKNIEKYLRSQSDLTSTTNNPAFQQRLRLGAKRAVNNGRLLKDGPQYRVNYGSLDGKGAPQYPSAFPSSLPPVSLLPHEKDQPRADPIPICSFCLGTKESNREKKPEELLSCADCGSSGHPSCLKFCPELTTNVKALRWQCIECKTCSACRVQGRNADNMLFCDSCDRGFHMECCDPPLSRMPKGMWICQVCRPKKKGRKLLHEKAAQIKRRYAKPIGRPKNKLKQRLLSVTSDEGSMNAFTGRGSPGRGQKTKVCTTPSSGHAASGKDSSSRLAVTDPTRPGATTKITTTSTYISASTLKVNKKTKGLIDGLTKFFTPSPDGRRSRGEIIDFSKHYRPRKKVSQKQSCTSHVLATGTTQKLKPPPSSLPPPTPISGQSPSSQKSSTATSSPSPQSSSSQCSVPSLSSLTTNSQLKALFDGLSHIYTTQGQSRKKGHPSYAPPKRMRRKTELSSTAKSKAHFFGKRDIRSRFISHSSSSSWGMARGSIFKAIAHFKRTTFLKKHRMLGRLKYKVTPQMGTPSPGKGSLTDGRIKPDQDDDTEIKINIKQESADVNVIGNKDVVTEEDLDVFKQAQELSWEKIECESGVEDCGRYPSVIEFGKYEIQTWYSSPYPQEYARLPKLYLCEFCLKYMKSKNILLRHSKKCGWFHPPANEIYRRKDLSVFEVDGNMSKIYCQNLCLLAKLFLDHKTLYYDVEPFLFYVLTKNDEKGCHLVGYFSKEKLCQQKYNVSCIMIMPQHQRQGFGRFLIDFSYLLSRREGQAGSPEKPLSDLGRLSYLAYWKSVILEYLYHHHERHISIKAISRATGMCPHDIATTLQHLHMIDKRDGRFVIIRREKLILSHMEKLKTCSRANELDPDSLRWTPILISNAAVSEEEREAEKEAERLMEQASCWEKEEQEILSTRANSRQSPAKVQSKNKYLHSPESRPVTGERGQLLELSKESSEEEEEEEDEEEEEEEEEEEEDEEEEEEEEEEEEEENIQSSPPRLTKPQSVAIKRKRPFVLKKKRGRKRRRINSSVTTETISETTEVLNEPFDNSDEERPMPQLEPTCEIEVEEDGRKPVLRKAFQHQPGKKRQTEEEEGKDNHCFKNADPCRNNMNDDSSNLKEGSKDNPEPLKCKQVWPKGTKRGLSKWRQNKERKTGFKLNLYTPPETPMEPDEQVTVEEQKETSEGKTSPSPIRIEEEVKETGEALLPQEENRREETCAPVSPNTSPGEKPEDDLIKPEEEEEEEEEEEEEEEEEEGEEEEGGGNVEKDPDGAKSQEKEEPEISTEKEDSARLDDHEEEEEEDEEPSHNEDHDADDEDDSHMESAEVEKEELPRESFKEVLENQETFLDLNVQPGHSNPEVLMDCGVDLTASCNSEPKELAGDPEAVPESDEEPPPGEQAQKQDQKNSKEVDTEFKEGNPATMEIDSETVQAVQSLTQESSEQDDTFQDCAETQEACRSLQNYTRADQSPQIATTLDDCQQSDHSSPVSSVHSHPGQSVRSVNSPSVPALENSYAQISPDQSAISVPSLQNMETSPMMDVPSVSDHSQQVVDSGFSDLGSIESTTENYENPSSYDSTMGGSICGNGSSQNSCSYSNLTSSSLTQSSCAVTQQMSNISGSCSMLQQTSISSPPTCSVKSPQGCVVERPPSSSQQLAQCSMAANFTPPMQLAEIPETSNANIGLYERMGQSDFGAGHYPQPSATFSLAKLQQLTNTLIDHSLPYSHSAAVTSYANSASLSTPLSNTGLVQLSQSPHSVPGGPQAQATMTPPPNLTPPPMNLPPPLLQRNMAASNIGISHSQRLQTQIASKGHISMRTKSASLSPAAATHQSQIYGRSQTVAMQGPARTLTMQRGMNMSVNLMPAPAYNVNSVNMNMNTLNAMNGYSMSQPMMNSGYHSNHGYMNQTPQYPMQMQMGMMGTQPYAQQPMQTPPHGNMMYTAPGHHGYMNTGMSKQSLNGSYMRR

SMILES	IC50 [nM]
Cc1ccc2cccc(S(=O)(=O)NC(=O)c3cc4c(F)cc(N5CC(F)C5)cc4o3)c2n1 [WO2022081807, Example 152]	20
CC(C)c1ccc(OCC2CC2)c(S(=O)(=O)NC(=O)c2cc3c(F)cc(N4CCC4)cc3o2)c1 [WO2022081807, Example 214]	20
CCOc1ccc(C(C)(C)C)cc1S(=O)(=O)NC(=O)c1cc2c(F)cc(N3CC(F)C3)cc2o1 [WO2022081807, Example 113]	12
CC(C)c1ccc(OCc2ccccc2)c(S(=O)(=O)NC(=O)c2cc3c(F)cc(N4CCC4)cc3o2)c1 [WO2022081807, Example 213]	15
CC(C)(C)c1ccc(OC2CCC2)c(S(=O)(=O)NC(=O)c2cc3c(F)cc(N4CCC4)cc3o2)c1 [WO2022081807, Example 228]	13
CC(C)Oc1ccc(C(C)(C)C)cc1S(=O)(=O)NC(=O)c1cc2c(F)cc(N3CCC3)cc2o1 [WO2022081807, Example 229]	28
Cc1ccc2cccc(S(=O)(=O)NC(=O)c3cc4c(F)cc(N5CCC5)cc4o3)c2n1 [WO2022081807, Example 130]	20
CC(C)c1ccc(OCC2CC2(F)F)c(S(=O)(=O)NC(=O)c2cc3c(F)cc(N4CCC4)cc3o2)c1 (racemic) [WO2022081807, Example 231]	29
COc1ccc(C(C)C)cc1S(=O)(=O)NC(=O)c1cc2c(F)cc(N3CCC3)cc2o1 [WO2022081807, Example 128]	15
CC(C)c1cccnc1S(=O)(=O)NC(=O)c1cc2c(F)cc(N3CCC3)cc2o1 [WO2022081807, Example 79]	14
